pEC50: −log10 of the molar value. Where a name gives a salt, the structure may show the parent alone.
System: eNOS promoter
Assay: Activation of eNOS transcription (eNOS promoter firefly luciferase reporter gene assay)
Format: cell-based
Conditions: human endothelial cell line stably transfected with eNOS promoter-luciferase construct; 18 h incubation; determined graphically; read-out: EC50 values of transcription induction ratios (TIR)
Method: Activation of eNOS transcription was measured as described in detail by Li et al., “Activation of protein kinase C alpha and/or epsilon enhances transcription of the human endothelial nitric oxide synthase gene”, Mol. Pharmacol. 53 (1998) 630. Briefly, a 3.5 kB long fragment 5′ of the starting codon of the eNOS gene was cloned, sequenced and cloned in firefly luciferase expression plasmids to monitor activation of the eNOS promoter by reporter gene activity. A human endothelial cell line stable transfected and expressing this promoter-reporter construct was used for compound testing. Cells were incubated for 18 h with the compounds.
All compounds were dissolved in sterile dimethyl sulfoxide (DMSO). A final concentration of 0.5% DMSO in complete medium was allowed. Induction of reporter gene expression in these cells was measured using a standard luciferase assay system (Promega, Cat. No. E150) according to the manufacturer's instructions. Luciferase induction in cells incubated with compounds were compared to those incubated with solvent alone. The ratio of both activities (transcription induction ratio, TIR) was plotted as a function of compound concentration. […] EC50 values of transcription induction ratios as a function of compound concentration were determined graphically.

Row | Compound | pEC50
1 | CN(C)C(=O)[C@@H]1C[C@H]1c1ccc(-c2ccccc2F)nc1 (relative stereo) [Example 49, trans-2-[6-(2-Fluoro-phenyl)-pyridin-3-yl]-cyclopropanecarboxylic acid dimethylamide trifluoroacetic acid salt] | > 6.30
2 | O=C([C@@H]1C[C@H]1c1ccc(-c2ccc(F)cc2)nc1)N1CCCC1 (relative stereo) [Example 46, {trans-2-[6-(4-fluoro-phenyl)-pyridin-3-yl]-cyclopropyl}-(pyrrolidin-1-yl)-methanone trifluoroacetic acid salt] | 5.30 to 6.30
